Laboratory results: patent publication US10800741B2 (ANCUREALL PHARMACEUTICAL (SHANGHAI) CO., LTD., priority 2017, dated 2020)

Tests used:
SNU-16 = assay: In vitro growth inhibition of SNU-16 cells; format: cell-based; settings: Homo sapiens, FGFR2 amp
Description: (§1) Adherent cells were digested with 0.25% trypsin-EDTA (Gibco). Suspension culture cells were collected by centrifugation (1700 rpm, 3 minutes). The supernatant was discarded and the cells were counted. According to each cell growth cycle, different concentrations of cells were prepared (5˜10×10^4 cells per ml), and inoculated to 96-well plates (Corning), with 100 μl per well, and incubated overnight at 37° C., 5% CO2. The next day, the test compound was added to the cultured cells (2 wells in parallel). The final concentration of the solvent was less than 1/1,000. The cells were further cultured for 3 to 5 days and assayed by MTT.
(§2) The MTT test reagent was a Dojindo CCK8 kit and the Microplate Reader was a THERMO […] FC instrument.
(§3) The adherent cells were taken out from the cell culture medium, and immediately added to a freshly prepared complete medium containing 10% CCK8 (5% FBS), 100 ul per hole. The suspended cells were directly added to a CCK8 reagent until reaching a final concentration of 10% and cultured for 1 to 4 hours. When a dark yellow color could be observed in the solvent control wells, the absorbance value at OD450 nm was measured and the cell growth rate was calculated according to the following formula: Cell Growth Rate (%)=100×(T−T0)/(C−T0)
(§4) T=optical density of drug-treated cell wells−optical density of blank control wells; T0=optical density of cell wells before drug treatment−optical density of blank control wells; C=optical density of solvent control wells−optical density of blank control wells. […] The experiments were repeated 1 to 3 times and a statistical analysis of data was conducted.
(§5) Mutations in the FGFR1-4 gene often occur in different types of cancer patients. In order to test the growth inhibition activity of the present compound against tumor cells expressing different FGFR variants, tumor cell lines expressing representative FGFR1-4 were selected for further determining the activity of compounds 25, 66, 38 and 95 of the present invention. BGJ398, a selective inhibitor of FGFR1-4, was used as the control compound. The specific test method is the same as test example 1.

Jurkat = assay: In vitro growth inhibition of FLT3 wild-type normal expressing cells Jurkat; format: cell-based; settings: Homo sapiens, cells normally expressing FLT3 wild-type
Description: as §1, §2, §3, §4
(§6) The present compounds which has a high growth inhibition activity on tumor cells positive expressing FLT3-ITD were selected for the determination of IC50 concentration on FLT3 wild tyoverexpressing cells RS4:11 and FLT3 wild-type normal expressing cells Jurkat. The specific test method is the same as that of test example 1.

A2780 = assay: In vitro growth inhibition of PI3KCA amplified/mutant tumor cells A2780; format: cell-based; settings: Homo sapiens; A2780; PIK3CA E365K; read-out: IC50 growth inhibition
Description: as §1, with “Suspension” for “Adherent cells were digested with 0.25% trypsin-EDTA (Gibco). Suspension”
The adherent cells were taken out from the cell culture medium, and immediately added to a freshly prepared complete medium containing 10% CCK8 (5% FBS), 100 ul per hole. The suspended cells were directly added to a CCK8 reagent until reaching a final concentration of 10% and cultured for 1 to 4 hours.
as §4

KCL-22 (BCR-ABL) = assay: In vitro growth inhibition of KCL-22 tumor cells (MTT/CCK8); format: cell-based, Human; settings: Homo sapiens, KCL-22; in vitro growth inhibition (or induction of apoptosis), cells cultured 3 to 5 days, MTT (CCK8); read-out: IC50 KCL-22 (BCR-ABL)
RS4:11 = assay: In vitro growth inhibition of FLT3 wild type overexpressing cells RS4:11; format: cell-based; settings: Homo sapiens, cells over expressing FLT3 wild-type
Description: as §1, §2, §3, §4, §6

JHH-7 = assay: In vitro growth inhibition of JHH-7 cells; format: cell-based; settings: Homo sapiens, JHH7, FGFR3+++, FGFR4 +++
Description: as §1, §2, §3, §4, §5

PLC/PRF/5 = assay: In vitro growth inhibition of PLC/PRF/5 cells; format: cell-based; settings: Homo sapiens, FGFR3+++, FGFR4 +++
Description: as §1, §2, §3, §4, §5

| SMILES | IC50 (SNU-16) | IC50 (Jurkat) | IC50 (A2780) | IC50 (KCL-22 (BCR-ABL)) | IC50 (RS4:11) | IC50 (JHH-7) | IC50 (PLC/PRF/5) |
| --- | --- | --- | --- | --- | --- | --- | --- |
| COCCOc1cc2nccc(Oc3ccc(NC(=O)Nc4cc(C(C)(C)C)n[nH]4)c(Cl)c3)c2cc1NC(C)=O [Compound 66, N-[4-{4-[3-(5-tert-butyl-2H-pyrazol-3-yl)-ureido]-3-chloro-phenoxy}-7-(2-methoxy-ethoxy)-quinolin-6-yl]-acetamide] | 1.01 nM | 462 nM | 7.68 nM | 3.12 nM | 523 nM | 12.9 nM | 2.67 nM |
| COc1cc2nccc(Oc3ccc(NC(=O)Nc4cc(C(C)(C)C)nn4C)c(Cl)c3Cl)c2cc1C(N)=O [Compound 38, 4-{4-[3-(5-tert-butyl-2-methyl-2H-pyrazol-3-yl)-ureido]-2,3-dichloro-phenoxy}-7-methoxyquinolin-6-carboxamide] | 2.03 nM | 202 nM | 9.1 nM | 0.481 nM | 65.8 nM | 9.89 nM | 2.08 nM |
| CN1CCN(CCCOc2cc3nccc(Oc4ccc(NC(=O)Nc5cc(C(C)(C)C)n[nH]5)c(Cl)c4Cl)c3cc2C(N)=O)CC1 [Compound 95] | 3.34 nM |  | 9.2 nM | 7.03 nM |  | 17.6 nM | 2.37 nM |
